Data from US6924300B2, “Oxyiminoalkanoic acid derivatives” (Takeda Chemical Industries, Ltd., priority 1998, dated 2005).
Like-named read-outs stand apart in the source and are kept apart here.

Columns and labels:
[1] = target: T1, PPARγ-RXRα heterodimer (Homo sapiens, UniProt P37231); assay: PPARγ-RXRα heterodimer transactivation assay (luciferase reporter in PPARγ: RXRα: 4ERPP/CHO-K1 cell); type: cell-based; details: luciferase induction, 48 hours, concentration for 50% of the maximum activity
T1 construct: expressed in transfected cells
T1 sequence (P37231 1-477 isoform P37231-2): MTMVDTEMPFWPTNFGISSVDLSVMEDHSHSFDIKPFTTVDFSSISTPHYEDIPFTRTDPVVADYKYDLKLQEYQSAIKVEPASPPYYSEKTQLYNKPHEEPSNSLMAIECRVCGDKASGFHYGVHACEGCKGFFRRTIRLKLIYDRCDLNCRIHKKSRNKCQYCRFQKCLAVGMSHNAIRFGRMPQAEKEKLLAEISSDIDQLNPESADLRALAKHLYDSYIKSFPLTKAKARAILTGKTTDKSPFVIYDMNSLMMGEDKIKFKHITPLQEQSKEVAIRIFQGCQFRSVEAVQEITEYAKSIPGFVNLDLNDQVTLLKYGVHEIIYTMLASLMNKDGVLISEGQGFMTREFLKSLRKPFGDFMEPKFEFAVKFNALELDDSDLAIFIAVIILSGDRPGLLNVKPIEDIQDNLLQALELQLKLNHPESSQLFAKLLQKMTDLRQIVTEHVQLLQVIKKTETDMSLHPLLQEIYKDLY
T1 sequence (P19793 1-462 partner): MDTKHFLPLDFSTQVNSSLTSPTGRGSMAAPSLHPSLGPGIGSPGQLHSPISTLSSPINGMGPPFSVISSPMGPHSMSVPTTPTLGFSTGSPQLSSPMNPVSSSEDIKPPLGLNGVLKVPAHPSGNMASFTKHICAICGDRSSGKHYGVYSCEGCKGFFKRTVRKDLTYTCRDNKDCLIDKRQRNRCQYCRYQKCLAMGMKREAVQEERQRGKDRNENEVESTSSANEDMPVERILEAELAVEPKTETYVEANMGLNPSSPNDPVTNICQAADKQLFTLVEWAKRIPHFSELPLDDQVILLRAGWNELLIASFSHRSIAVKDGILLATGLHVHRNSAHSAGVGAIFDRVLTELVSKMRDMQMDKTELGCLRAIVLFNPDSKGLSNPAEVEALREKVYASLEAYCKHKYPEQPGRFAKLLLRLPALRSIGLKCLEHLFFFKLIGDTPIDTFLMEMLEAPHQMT
Protocol: After washing a 96-well white plate with PBS (Phosphate-buffered saline), 90 μl of HAM F12 medium containing 0.1% fatty acid-free bovine serum albumin (BSA) and 10 μl of a test substance were added to the plate, which was then cultured in a carbonate gas incubator at 37° C. for 48 hours. After removing the medium, 40 μl of […] 7.5 (Wako Pure Chemical Ind. Ltd.) was added, and after stirring, a luciferase activity was determined using Lumistar (BMG Labtechnologies GmBH, Germany).
An induction magnitude was calculated based on the luciferase activity of each test substance with the luciferase activity in the non-treatment group being regarded as 1.
Subsequently, the cells were transferred into a HAM F12 medium containing 10% Fetal Bovine Serum and cultured for 24 hours and then the cells were scraped again and centrifuged, and then suspended in HAM F12 medium containing 10% Fetal Bovine Serum supplemented with 500 μg/ml of GENETICIN (Life Technologies, Inc., USA) and 250 μg of ZEOCIN (Invitrogen, USA) and diluted to the density of 10^4 cells/ml upon inoculation to a 96-well plate (Corning Coster Corporation, USA), which was cultured in a carbonate gas incubator at 37° C., whereby obtaining a GENETICIN- and ZEOCIN-resistant transformant.
Subsequently, the transformant cell line thus obtained was cultured in a 24-well plate (Corning Coster Corporation, USA) and then screened, by addition of 10 μM Pioglitazone, for a cell line in which the luciferase expression was induced, i.e., PPARγ: RXRα: 4ERPP/CHO-K1 cell.

[2] = tested on: KKA^y mice; assay: Hypoglycemic and hypolipidemic actions in mice (test compound in diet, plasma glucose and triglyceride); type: in vivo; details: Mus musculus, feed or water, 96 h, dosage: 0.005% in diet, 4 days
[3] = tested on: KKA^y mice; assay: as above; type: in vivo; details: Mus musculus, feed or water, 96 h, 4 days
Protocol: A test compound was added to a powdered diet (CE-2, Clea Japan Inc.) at a concentration of 0.01%, and the diet was given ad libitum to KKA^y mice (9 to 12 weeks old, 5 animals in a group), a model of obese Type II diabetes mellitus (non-insulin dependent diabetes mellitus), for 4 days. During this period, water was given ad libitum. Blood was sampled from orbital venous plexus and plasma glucose and triglyceride levels were determined enzymatically using L type Wako Glu2 (Wako Pure Chemical In. Ltd.) and Iatro-MA701 TG kit (Iatron Laboratories Inc.) or L type Wako TG.H (Wako Pure Chemical Ind. Ltd.), respectively.
The value of each treatment group is represented as % reduction when compared with the non-treatment group, and summarized in Table 1.

[4] = 0.01% in diet, plasma triglyceride, Iatro-MA701 TG kit, compared with non-treatment group, read-out: Hypotriglyceridemic effect (% reduction)
[5] = 0.01% in powdered diet, plasma glucose, compared with non-treatment group, read-out: Hypoglycemic effect (% reduction)
[6] = 0.01% in diet, plasma triglyceride, quantified using L-type Wako TG.H, read-out: Hypotriglyceridemic effect (% reduction)

Structure (SMILES)	EC50 [1]	melting point	inhibition in vivo at 0.005 % ([2]; plasma glucose, compared with non-treatment group, read-out: Hypoglycemic effect (% reduction))	inhibition in vivo at 0.005 % ([2]; plasma triglyceride, quantified using L-type Wako TG.H, read-out: Hypotriglyceridemic effect (% reduction))	inhibition in vivo at 0.01 % [3, 4]	inhibition in vivo at 0.01 % [3, 5]	inhibition in vivo at 0.01 % [3, 6]
Cc1oc(-c2ccccc2)nc1COc1ccc(CO/N=C(\CCC(N)=O)c2ccccc2)cc1 [Example 106, E-4-[4-(5-methyl-2-phenyl-4-oxazolylmethoxy)benzyloxyimino]-4-phenylbutyramide]	330 nM	164 to 165 °C	46%	65%			
Cc1oc(-c2ccccc2)nc1COc1ccc(CO/N=C(\C(=O)O)c2ccc(Oc3ccccc3)cc2)cc1 [Example 11, Z-2-[4-(5-methyl-2-phenyl-4-oxazolylmethoxy)benzyloxyimino]-2-(4-phenoxyphenyl)acetic acid]	410 nM				82%	49%	
Cc1oc(-c2ccccc2)nc1COc1ccc(CO/N=C(\CCCCCCC(=O)O)c2ccccc2)cc1 [Example 81, E-8-[4-(5-methyl-2-phenyl-4-oxazolylmethoxy)benzyloxyimino]-8-phenyloctanoic acid]	260 nM					54%	75%

Continued, in another order:

EC50 [1]	melting point	Structure (SMILES)	inhibition in vivo at 0.005 % ([2]; plasma glucose, compared with non-treatment group, read-out: Hypoglycemic effect (% reduction))	inhibition in vivo at 0.005 % ([2]; plasma triglyceride, quantified using L-type Wako TG.H, read-out: Hypotriglyceridemic effect (% reduction))	inhibition in vivo at 0.01 % [3, 4]	inhibition in vivo at 0.01 % [3, 5]	inhibition in vivo at 0.01 % [3, 6]
790 nM		Cc1oc(-c2ccccc2)nc1COc1ccc(CO/N=C(\C(=O)O)C(C)C)cc1 [Example 25, Z-3-methyl-2-[4-(5-methyl-2-phenyl-4-oxazolylmethoxy)benzyloxyimino]butyric acid]			66%	38%	
47 nM		Cc1oc(-c2ccccc2)nc1COc1ccc(CO/N=C(\CCC(=O)O)c2ccc(F)cc2)cc1 [Example 17, E-4-(4-fluorophenyl)-4-[4-(5-methyl-2-phenyl-4-oxazolylmethoxy)benzyloxyimino]butyric acid]				49%	59%
